Among the test systems are MALME-3M melanoma; NCI-H460 lung; 786-0 renal; NCI-H226 lung; MDA-MB-231 breast; HCT-15 colon; HCT-116 colon; BT-549 breast; SNB-19 CNS; PC-3 prostate.
Holding throughout (assay): NCI anticancer screen, dose series, 48 h

Where “and” joins values, the source holds several entries; their conditions need not be identical. Identical values can stand only once.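 Grown in 96-well plates, cells were treated for 48 hours with each compound at five concentrations. Insufficient inhibition: endpoint recorded as highest concentration tested. GI50: concentration for 50% inhibition of growth. TGI is the concentration that stops growth completely.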

`CCN(CC)CCC(=O)N1C/C(=C/c2ccccc2)C(=O)/C(=C\c2ccccc2)C1`: the TGI was 7.36 µM in the assay on MALME-3M melanoma; 11.4 µM in the assay with NCI-H460 lung; 9.78 µM with 786-0 renal; 13.7 µM in the assay on NCI-H226 lung; 2.57 µM in the assay with MDA-MB-231 breast; 3.91 µM in the assay on HCT-15 colon. The TGI was determined as 1.02 µM in the assay on HCT-116 colon, 1.81 µM in the assay on BT-549 breast, 6.63 µM in the assay on SNB-19 CNS and 2.9 µM in the assay with PC-3 prostate.

Consider `CCCCCCC/C=C1\CCC(CN(C)C)C1=O` (configuration not stated), for which the TGI in the assay on MALME-3M melanoma was 25.3 µM; with NCI-H460 lung, 40.5 µM; in the assay on 786-0 renal, 3.84 µM; in the assay with NCI-H226 lung, 48.4 µM; in the assay on MDA-MB-231 breast it was 8.72 µM; in the assay with HCT-15 colon it was 21.7 µM. Also, the TGI in the assay with HCT-116 colon turned out to be 22.3 µM; in the assay with BT-549 breast, 28 µM; in the assay on SNB-19 CNS it was 33.8 µM; in the assay on PC-3 prostate, 27.6 µM.

Turning to `COc1cc2c(cc1OC)-c1ncc3cc(OC)c(OC)c(OC)c3c1C2`, the GI50 in the assay with NCI-H460 lung is 31.6 µM; with 786-0 renal it was 40 µM; in the assay with MDA-MB-231 breast it was 2.54 µM; in the assay on HCT-15 colon, 35.4 µM; in the assay with HCT-116 colon, 31.8 µM; with BT-549 breast it was 2.94 µM. Moreover, the values for the GI50 with SNB-19 CNS and with PC-3 prostate were 79.9 µM and 17.1 µM, respectively. For the same compound, the TGI with NCI-H460 lung is above 100 µM; in the assay with 786-0 renal, above 100 µM; in the assay on MDA-MB-231 breast, 48.7 µM; with HCT-15 colon, above 100 µM; in the assay on HCT-116 colon, above 100 µM; in the assay with BT-549 breast, 7.56 µM. Besides, the TGI with SNB-19 CNS and with PC-3 prostate was above 100 µM in each case.

On to `COc1c(N2CCN(CN3C(=O)C(=O)c4ccccc43)C(C)C2)c(F)cc2c(=O)c(C(=O)O)cn(C3CC3)c12` (configuration not stated), for which the GI50 in the assay with NCI-H460 lung is 43.4 µM; in the assay with 786-0 renal, above 100 µM; in the assay on NCI-H226 lung it was above 100 µM; in the assay with MDA-MB-231 breast, 53.5 µM; in the assay on HCT-15 colon, 55.8 µM; with HCT-116 colon, 44.9 µM. Moreover, the GI50 in the assay on BT-549 breast, in the assay on SNB-19 CNS and in the assay on PC-3 prostate was above 100 µM in each case. For the same compound, the TGI in the assay with NCI-H460 lung, in the assay with 786-0 renal, with NCI-H226 lung, in the assay on MDA-MB-231 breast, in the assay with HCT-15 colon and in the assay with HCT-116 colon was above 100 µM each time. Moreover, the TGI with BT-549 breast, with SNB-19 CNS and in the assay on PC-3 prostate was above 100 µM each time.

In the case of `COc1ccc(C[C@H]2NC[C@H](O)[C@H]2OC(C)=O)cc1`, the TGI in the assay with MALME-3M melanoma amounted to 0.708 µM; in the assay with NCI-H460 lung, 0.611 µM; in the assay on 786-0 renal, 0.137 µM; in the assay on NCI-H226 lung, 0.242 µM; with MDA-MB-231 breast, 0.079 µM; in the assay with HCT-116 colon, 0.146 µM. In addition, the TGI turned out to be 1.91 µM with BT-549 breast, 0.289 µM in the assay on SNB-19 CNS and 0.49 µM in the assay with PC-3 prostate.

In the case of `CSC1SCC2C(=O)N(C)C(C(C)C)C(=O)OCC(NC(=O)c3cnc4ccccc4n3)C(=O)NC(C)C(=O)N(C)C1C(=O)N(C)C(C(C)C)C(=O)OCC(NC(=O)c1cnc3ccccc3n1)C(=O)NC(C)C(=O)N2C` (configuration not stated), the GI50 in the assay with MALME-3M melanoma was below 0.001 µM; with NCI-H460 lung, below 0.001 µM; with 786-0 renal, below 0.001 µM; in the assay on NCI-H226 lung, 0.00325 µM; in the assay on HCT-15 colon, 0.00322 µM; in the assay on BT-549 breast it was below 0.001 µM. Also, the GI50 in the assay on SNB-19 CNS is below 0.001 µM. The TGI was 0.00192 µM and 0.00985 µM and 0.0142 µM in the assay on MDA-MB-231 breast; 0.0158 µM with BT-549 breast; 0.0132 µM and 0.0224 µM with PC-3 prostate.

Regarding `COc1cc(=O)oc(/C=C/C=C/C=C/C(C)=C\C2(C)OC(C)C(C)(O)C2O)c1C` (configuration not stated), the TGI with NCI-H460 lung, with 786-0 renal, in the assay with NCI-H226 lung, with MDA-MB-231 breast, with HCT-15 colon and in the assay with HCT-116 colon was above 100 µM each time. The TGI with BT-549 breast, in the assay on SNB-19 CNS and with PC-3 prostate was above 100 µM each time.

`CCCCCC(=C/c1ccccc1)/C=N/N=C(N)N`: the GI50 in the assay on MALME-3M melanoma was 1.51 µM; in the assay with NCI-H460 lung, 1.57 µM; in the assay with 786-0 renal, 1.6 µM; in the assay with NCI-H226 lung it was 2.2 µM; in the assay on HCT-15 colon, 1.99 µM; in the assay with HCT-116 colon, 1.32 µM. Besides, the GI50 with BT-549 breast is 1.65 µM; with SNB-19 CNS it was 1.85 µM; in the assay on PC-3 prostate, 1.4 µM. Further, the TGI in the assay with MALME-3M melanoma came to 3.12 µM; in the assay with NCI-H460 lung it was 3.13 µM; with 786-0 renal, 3 µM; in the assay with NCI-H226 lung, 5.51 µM; in the assay on HCT-15 colon, 5 µM; in the assay on HCT-116 colon, 2.72 µM. The TGI in the assay with BT-549 breast stood at 3.02 µM; in the assay with SNB-19 CNS, 4.15 µM; with PC-3 prostate it was 2.92 µM.

For the compound `O=C(Nc1ccc(N2CCNCC2)cn1)c1[nH]ncc1Nc1ncnc2sccc12`, the GI50 in the assay with MALME-3M melanoma is 1.43 µM; in the assay with NCI-H460 lung, 1.73 µM; in the assay with 786-0 renal, 1.62 µM; in the assay with NCI-H226 lung it was 2.62 µM; in the assay on MDA-MB-231 breast it was 1.68 µM; with HCT-15 colon, 8.3 µM. The values for the GI50 in the assay with HCT-116 colon, with BT-549 breast and in the assay on PC-3 prostate were 1.15 µM, 1.83 µM and 1.59 µM, respectively. Also, the TGI in the assay on MALME-3M melanoma is 3.19 µM; in the assay with NCI-H460 lung it was 3.57 µM; in the assay on 786-0 renal, 3.23 µM; with NCI-H226 lung, 9.05 µM; with MDA-MB-231 breast, 3.36 µM; in the assay with HCT-15 colon it was above 100 µM. Moreover, the results for the TGI with HCT-116 colon, with BT-549 breast and in the assay with PC-3 prostate were 3.09 µM, 4.13 µM and 3.65 µM, respectively.

As to `CCC(=O)Nc1ncnc2ncn(C(=O)CC)c12`, the TGI with MALME-3M melanoma, with NCI-H460 lung, in the assay with 786-0 renal, with MDA-MB-231 breast, in the assay on HCT-15 colon and in the assay with HCT-116 colon was above 100 µM each time. Moreover, the TGI with BT-549 breast, in the assay with SNB-19 CNS and in the assay with PC-3 prostate was above 100 µM in each case.

Source of the values: PubChem BioAssay (NCI).
